Reference: paper PMC7339578, “Multiple circulating alkaloids and saponins from intravenous Kang-Ai injection inhibit human cytochrome P450 and UDP-glucuronosyltransferase isozymes: potential drug–drug interactions” (Chinese Medicine, 2020)
Several values for one entry are separate records, joined by “and”; a condition that tells them apart may be missing. Equal values may be shown once.

Key:
Format in all cases: in vivo, Sprague–Dawley rats
[1] = Biliary (hepatobiliary) excretion in rats after a 30-min infusion of Kang-Ai injection
Method: (§1) For urine sampling, the rats were housed singly in metabolic cages. And then, the urine samples were collected at 0–4, 4–8 and 8–12 h after starting infusion and were weighed. Likewise, bile samples were also collected at 0–3, 3–6, 6–9 and 9–12 h after starting infusion and were weighed. The urine and bile collection tubes were all frozen at − 80 °C.
(§2) Pharmacokinetic parameters were estimated by non-compartmental analysis using WinNonlin 6.3 software (Pharsight, NC, US). Data are presented as the mean ± SD (n = 3). The area under the concentration–time curve up to the last measured point in time (AUC0-t) was calculated using the trapezoidal rule. The total plasma clearance (CLtot, p) was calculated by dividing the compound dose by the AUC0-∞, and the distribution volume at steady state (VSS) was estimated by multiplying the CLtot, p by the mean residence time (MRT). The renal excretory clearance (CLR) and hepatobiliary (CLB) was determined by dividing the cumulative amount excreted into urine (Cum.Ae-U) and bile (Cum.Ae-B) by the plasma AUC0-∞, respectively. The fractions of dose excreted into urine (fe-U) and the fractions of dose excreted into bile (fe-B) were established using the relationship Cum.Ae-U/Dose and Cum.Ae-B/Dose, respectively. Mean differences between treatment and control groups were analyzed by two-tailed unpaired Student’s t test by Graphpad Prism V5 software (SanDiego, CA). The level of significance was set at p < 0.05 (∗), p < 0.01 (∗∗) or p < 0.001 (∗∗∗).

[2] = Plasma pharmacokinetics in rats after a 30-min intravenous infusion of Kang-Ai injection; conditions: rat, in vivo, iv
Method: Specific pathogen free (SPF) grade male Sprague–Dawley rats (250 ± 20) g were provided by the Experimental Animal Center of Zhengzhou University (Zhengzhou, China). These rats were kept in a designated animal room at constant temperature (22 ± 2) °C and humidity (50 ± 20) % with 12 h of light/dark per day and free access to water and food. All protocols of animal experiments were approved in accordance with the Regulations of Experimental Animal Administration issued by the Ethics Review Committee for Animal Experimentation of Jinan University (Ethical Review NO. 20190301010). Prior to the experiments, the rats were fasted for 12 h but with free access to water. After study use, the rats were euthanized with CO2 gas.
The rats in this study all received a single 30-min intravenous infusion of Kang-Ai injection via the tail veins using TYD01-02 infusion pumps (Lead Fluid, Baoding, China). The dose was derived from the label daily dose of Kang-Ai injection (60 mL/person, once daily) according to dose normalization by body surface area. For plasma pharmacokinetic studies, the rats were randomly received a single intravenous 30 min-bolus dose at 6 mL/kg. Blood samples (100 μL) were collected from the rats’ external jugular veins into heparinized polypropylene tubes at 5, 15, 30, 45 min, and 1, 1.5, 2, 3, 4, 6, 8, 12 h. After gently shaking for 10 s, the blood samples were centrifuged at 13000 g for 10 min to yield plasma samples, which were kept frozen at − 80 °C until analysis.
as §2

[3] = Urinary (renal) excretion in rats after a 30-min infusion of Kang-Ai injection
Method: as §1, §2

[4] = rat bile 0–12 h, Kang-Ai injection 6 mL/kg iv
[5] = male, Sprague-Dawley, rat, in vivo, iv
[6] = rat urine 0–12 h, Kang-Ai injection 6 mL/kg iv

CC(C)=CCC[C@](C)(O[C@@H]1O[C@H](CO)[C@@H](O)[C@H](O)[C@H]1O)[C@H]1CC[C@]2(C)[C@@H]1[C@H](O)C[C@@H]1[C@@]3(C)CC[C@H](O[C@@H]4O[C@H](CO)[C@@H](O)[C@H](O)[C@H]4O)C(C)(C)[C@@H]3CC[C@]12C [Compound D1, Ginsenoside F2]
fe-B,0–12h (fraction of dose excreted into bile) [1, 4]: 7.46% and 7.46 ± 2.11%

C=C(CCC=C(C)C)[C@H]1CC[C@]2(C)[C@@H]1[C@H](O)C[C@@H]1[C@@]3(C)CC[C@H](O)C(C)(C)[C@@H]3[C@@H](O[C@@H]3O[C@H](CO)[C@@H](O)[C@H](O)[C@H]3O)C[C@]12C [Compound E1, Ginsenoside Rk3]
fe-B,0–12h (fraction of dose excreted into bile) ([1]; rat, in vivo, iv): 27.80 ± 7.01%

O=c1cccc([C@@H]2C[C@H](CO)[C@H]3CCCCN3C2)[nH]1 [Compound A8, Mamanine]
CLB (hepatobiliary clearance) ([1]; rat, in vivo, iv): 2.67 ± 0.46 mL/h | fe-B,0–12h (fraction of dose excreted into bile) ([1]; rat, in vivo, iv): 34.12 ± 4.23% | CLtot, p [2]: 7.93 ± 1.77 mL/h | Cmax [2]: 421 ± 68.1 nM | VSS [2]: 16.89 ± 5.16 mL | t1/2 [2]: 2.32 ± 1.03 h | CLR (renal excretory clearance) ([3]; rat, in vivo, iv): 1.23 ± 0.50 mL/h | fe-U,0–12h (fraction of dose excreted into urine) ([3]; rat, in vivo, iv): 15.28 ± 5.11%

CC(C)=CCC[C@](C)(O[C@@H]1O[C@H](CO[C@@H]2OC[C@H](O)[C@H](O)[C@H]2O)[C@@H](O)[C@H](O)[C@H]1O)[C@H]1CC[C@]2(C)[C@@H]1[C@H](O)C[C@@H]1[C@@]3(C)CC[C@H](O)C(C)(C)[C@@H]3[C@@H](O)C[C@]12C [Compound C4, Ginsenoside F3]
fe-B,0–12h (fraction of dose excreted into bile) [1, 5]: 67.93 ± 8.80% | fe-U,0–12h (fraction of dose excreted into urine) [3, 5]: 24.46 ± 3.37%

CC(C)(O[C@@H]1O[C@H](CO)[C@@H](O)[C@H](O)[C@H]1O)[C@@H]1CC[C@](C)([C@H]2[C@@H](O)C[C@@]3(C)[C@@H]4C[C@H](O)[C@H]5C(C)(C)[C@@H](O[C@@H]6OC[C@@H](O)[C@H](O)[C@H]6O[C@@H]6O[C@H](CO)[C@@H](O)[C@H](O)[C@H]6O)CC[C@@]56C[C@@]46CC[C@]23C)O1 [Compound B5, Astragaloside V]
fe-U,0–12h (fraction of dose excreted into urine) ([3]; rat, in vivo, iv): 51.36 ± 7.44%

O=C1CCCC2=C3CCC[N+]4([O-])CCC[C@@H](CN12)[C@@H]34 (stereo partly drawn) [Compound A7, Leontalbinine N-oxide]
CLB (hepatobiliary clearance) ([1]; rat, in vivo, iv): 1.42 ± 0.17 mL/h | fe-B,0–12h (fraction of dose excreted into bile) ([1]; rat, in vivo, iv): 7.30 ± 1.41% | CLtot, p [2]: 20.03 ± 4.84 mL/h | Cmax [2]: 202 ± 19.1 nM | MRT [2]: 7.94 h | VSS [2]: 150.70 ± 19.02 mL | t1/2 [2]: 5.73 ± 1.74 h | CLR (renal excretory clearance) ([3]; rat, in vivo, iv): 12.32 ± 4.14 mL/h | fe-U,0–12h (fraction of dose excreted into urine) ([3]; rat, in vivo, iv): 61.05 ± 10.61%

CC(C)=CCC[C@](C)(O[C@@H]1O[C@H](CO)[C@@H](O)[C@H](O)[C@H]1O)[C@H]1CC[C@]2(C)[C@@H]1[C@H](O)C[C@@H]1[C@@]3(C)CC[C@H](O)C(C)(C)[C@@H]3[C@@H](O[C@@H]3O[C@H](CO)[C@@H](O)[C@H](O)[C@H]3O[C@@H]3O[C@H](CO)[C@@H](O)[C@H](O)[C@H]3O)C[C@]12C [Compound C13, 20-Gluco-Ginsenoside Rf]
fe-U,0–12h (fraction of dose excreted into urine) ([3]; rat, in vivo, iv): 38.72 ± 6.57%

O=C1CCC[C@@H]2[C@H]3CCCN4CCC[C@@](O)(CN12)[C@@H]34 [Compound A9, Sophoranol]
CLB (hepatobiliary clearance) ([1]; rat, in vivo, iv): 0.68 ± 0.16 mL/h | fe-B,0–12h (fraction of dose excreted into bile) ([1]; rat, in vivo, iv): 1.27 ± 0.20% | CLtot, p [2]: 56.05 ± 22.70 mL/h | Cmax [2]: 397 ± 49.7 nM | VSS [2]: 53.50 ± 7.71 mL | t1/2 [2]: 0.82 ± 0.37 h | CLR (renal excretory clearance) ([3]; rat, in vivo, iv): 34.24 ± 17.17 mL/h | fe-U,0–12h (fraction of dose excreted into urine) ([3]; rat, in vivo, iv): 59.77 ± 8.80%

CC(C)=CC/C=C(\C)[C@H]1CC[C@]2(C)[C@@H]1[C@H](O)C[C@@H]1[C@@]3(C)CC[C@H](O)C(C)(C)[C@@H]3[C@@H](O[C@@H]3O[C@H](CO)[C@@H](O)[C@H](O)[C@H]3O)C[C@]12C [Compound E2, Ginsenoside Rh4]
fe-B,0–12h (fraction of dose excreted into bile) [1, 4]: 46.95 ± 6.46%

O=C1C=CC[C@@H]2[C@H]3C[C@H](O)CN4CCC[C@@H](CN12)[C@@H]34 [Compound A6, 9α-hydroxysophocarpine]
CLB (hepatobiliary clearance) ([1]; rat, in vivo, iv): 5.86 ± 1.10 mL/h | fe-B,0–12h (fraction of dose excreted into bile) ([1]; rat, in vivo, iv): 12.50 ± 1.32% | CLtot, p [2]: 47.70 ± 10.72 mL/h | Cmax [2]: 344 ± 40.7 nM | VSS [2]: 93.63 ± 24.86 mL | t1/2 [2]: 2.16 ± 1.28 h | CLR (renal excretory clearance) ([3]; rat, in vivo, iv): 6.23 ± 2.97 mL/h | fe-U,0–12h (fraction of dose excreted into urine) ([3]; rat, in vivo, iv): 12.92 ± 4.98%

CC(C)=CCC[C@](C)(O[C@@H]1O[C@H](CO[C@@H]2O[C@H](CO)[C@@H](O)[C@H](O)[C@H]2O)[C@@H](O)[C@H](O)[C@H]1O)[C@H]1CC[C@]2(C)[C@@H]1[C@H](O)C[C@@H]1[C@@]3(C)CC[C@H](O)C(C)(C)[C@@H]3[C@@H](O[C@@H]3O[C@H](CO)[C@@H](O)[C@H](O)[C@H]3O)C[C@]12C [Compound C12, Notoginsenoside R3]
fe-U,0–12h (fraction of dose excreted into urine) ([3]; rat, in vivo, iv): 36.16 ± 7.04%

CC(C)=CCC[C@](C)(O[C@@H]1O[C@H](CO)[C@@H](O)[C@H](O)[C@H]1O)[C@H]1CC[C@]2(C)[C@@H]1[C@H](O)C[C@@H]1[C@@]3(C)CC[C@H](O)C(C)(C)[C@@H]3[C@@H](O)C[C@]12C [Compound C2, Ginsenoside F1]
fe-B,0–12h (fraction of dose excreted into bile) [1, 4]: 24.20 ± 4.93% | fe-U,0–12h (fraction of dose excreted into urine) [3, 6]: 23.37 ± 7.94%

CC(C)=CCC[C@](C)(O[C@@H]1O[C@H](CO[C@@H]2O[C@@H](CO)[C@H](O)[C@H]2O)[C@@H](O)[C@H](O)[C@H]1O)[C@H]1CC[C@]2(C)[C@@H]1[C@H](O)C[C@@H]1[C@@]3(C)CC[C@H](O)C(C)(C)[C@@H]3[C@@H](O[C@@H]3O[C@H](CO)[C@@H](O)[C@H](O)[C@H]3O)C[C@]12C [Compound C11, Ginsenoside Re4]
fe-U,0–12h (fraction of dose excreted into urine) ([3]; rat, in vivo, iv): 48.30 ± 10.27%

CC(C)(O[C@@H]1O[C@H](CO)[C@@H](O)[C@H](O)[C@H]1O)[C@@H]1CC[C@](C)([C@H]2[C@@H](O)C[C@@]3(C)[C@@H]4C[C@H](O)[C@H]5C(C)(C)[C@@H](O[C@@H]6OC[C@@H](O)[C@H](O)[C@H]6O)CC[C@@]56C[C@@]46CC[C@]23C)O1 [Compound B1, Isoastragaloside IV]
fe-B,0–12h (fraction of dose excreted into bile) ([1]; rat, in vivo, iv): 30.40 ± 3.79%

CC(C)=CCC[C@](C)(O[C@@H]1O[C@H](CO)[C@@H](O)[C@H](O)[C@H]1O)[C@H]1CC[C@]2(C)[C@@H]1[C@H](O)C[C@@H]1[C@@]3(C)CC[C@H](O)C(C)(C)[C@@H]3[C@@H](O[C@@H]3O[C@H](CO)[C@@H](O)[C@H](O)[C@H]3O[C@@H]3OC[C@@H](O)[C@H](O)[C@H]3O)C[C@]12C [Compound C10, Ginsenoside R1]
fe-U,0–12h (fraction of dose excreted into urine) [3, 6]: 40.28 ± 5.48%

CC(C)(O)[C@@H]1CC[C@](C)([C@H]2[C@@H](O)C[C@@]3(C)[C@@H]4C[C@H](O[C@@H]5O[C@H](CO)[C@@H](O)[C@H](O)[C@H]5O)[C@H]5C(C)(C)[C@@H](O[C@@H]6OC[C@@H](O)[C@H](O)[C@H]6O[C@@H]6O[C@H](CO)[C@@H](O)[C@H](O)[C@H]6O)CC[C@@]56C[C@@]46CC[C@]23C)O1 [Compound B4, Astragaloside VI]
fe-U,0–12h (fraction of dose excreted into urine) [3, 6]: 63.43 ± 11.75%

C=C(CCC=C(C)C)[C@H]1CC[C@]2(C)[C@@H]1[C@H](O)C[C@@H]1[C@@]3(C)CC[C@H](O)C(C)(C)[C@@H]3[C@@H](O[C@@H]3O[C@H](CO)[C@@H](O)[C@H](O)[C@H]3O[C@@H]3O[C@@H](C)[C@H](O)[C@@H](O)[C@H]3O)C[C@]12C [Compound E3, Ginsenoside Rg6]
fe-B,0–12h (fraction of dose excreted into bile) ([1]; rat, in vivo, iv): 31.31 ± 6.25%

CC(C)=CC/C=C(/C)[C@H]1CC[C@]2(C)[C@@H]1[C@H](O)C[C@@H]1[C@@]3(C)CC[C@H](O)C(C)(C)[C@@H]3[C@@H](O[C@@H]3O[C@H](CO)[C@@H](O)[C@H](O)[C@H]3O[C@@H]3O[C@@H](C)[C@H](O)[C@@H](O)[C@H]3O)C[C@]12C [Compound E4, Ginsenoside F4]
fe-B,0–12h (fraction of dose excreted into bile) ([1]; rat, in vivo, iv): 29.36 ± 3.14%

9α-hydroxysophoramine [Compound A4]
fe-B,0–12h (fraction of dose excreted into bile) ([1]; rat, in vivo, iv): 11.14 ± 1.05% | fe-U,0–12h (fraction of dose excreted into urine) ([3]; rat, in vivo, iv): 42.80 ± 14.69%
